The values below come from paper PMC9898749, “Cryo-EM structure of the plant nitrate transporter AtCLCa reveals characteristics of the anion-binding site and the ATP-binding pocket” (The Journal of Biological Chemistry, 2022).

The target in data set [1] is T1, AtCLCa (Arabidopsis thaliana, UniProt P92941).
T1 construct: gene CLC-A; HEK293F (BacMam); purified in GDN; homodimer; modelled residues 53-626, 636-737, 744-766
T1 sequence (P92941 1-775): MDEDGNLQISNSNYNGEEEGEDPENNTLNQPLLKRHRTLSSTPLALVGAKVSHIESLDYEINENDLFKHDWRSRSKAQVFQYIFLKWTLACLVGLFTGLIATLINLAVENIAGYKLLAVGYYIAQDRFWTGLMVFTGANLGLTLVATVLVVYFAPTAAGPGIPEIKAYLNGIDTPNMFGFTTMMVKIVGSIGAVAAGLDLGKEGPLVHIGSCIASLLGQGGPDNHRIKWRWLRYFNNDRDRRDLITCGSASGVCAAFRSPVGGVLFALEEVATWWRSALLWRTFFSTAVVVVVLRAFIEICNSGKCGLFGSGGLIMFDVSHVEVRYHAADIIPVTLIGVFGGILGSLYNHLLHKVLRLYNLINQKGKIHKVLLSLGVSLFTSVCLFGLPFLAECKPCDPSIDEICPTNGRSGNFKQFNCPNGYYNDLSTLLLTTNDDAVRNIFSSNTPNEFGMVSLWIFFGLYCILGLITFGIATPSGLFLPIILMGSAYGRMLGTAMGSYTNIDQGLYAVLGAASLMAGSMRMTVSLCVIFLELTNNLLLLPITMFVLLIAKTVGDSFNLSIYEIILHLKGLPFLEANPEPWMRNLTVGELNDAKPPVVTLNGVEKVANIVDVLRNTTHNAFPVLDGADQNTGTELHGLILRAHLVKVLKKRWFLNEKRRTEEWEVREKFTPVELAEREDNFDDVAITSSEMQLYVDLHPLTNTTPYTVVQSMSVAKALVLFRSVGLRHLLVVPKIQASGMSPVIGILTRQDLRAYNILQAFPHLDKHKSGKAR
Briefly: cryo-EM structure, […] Å. In kind it is binding. The conditions noted are these: 150 mM NaNO3; GDN detergent; pH 7.5; three anion sites (external, central, internal) in transport pathway; identity assigned from buffer; nitrates placed by docking overlapping EM densities.

Data set [2] deals with the molecule itself. Briefly: cryo-EM structure; AtCLCa 4.2 mg/ml in 20 mM Hepes pH 7.5, 150 mM NaNO3, 0.06% GDN; endogenous Mg2+-ATP bound; C2 symmetry imposed; 2.8 Å.

Regarding `O=[N+]([O-])O` [nitrate], the “cryo-EM structure, 2.8 Å” value in data set [1] is reported as “The ions are most likely nitrate because we purified the protein in a buffer”.

B1: Arabidopsis thaliana CLCa (natural protein, UniProt P92941 1-775, looked up)
chain: T1 sequence (P92941 1-775)
notes: AtCLCa, Arabidopsis thaliana chloride channel protein CLC-a, nitrate/proton antiporter; NCBI NP_198905.1; full length (residues 1-775; modelled residues 53-626, 636-737, 744-766); A C-terminal 3C cleavage site stands between the protein and the strep tag; Copurified with endogenous Mg2+-ATP; purified in 150 mM sodium nitrate; also called AtCLCa; source: HEK293F cells, BacMam system, purified …
On to B1, for which, in data set [2], the “stoichiometry N” value stood at 2.
